Reference: PMC5923123, “In Vitro and In Vivo Efficacy of a Novel and Long-Acting Fungicidal Azole, PC1244, on Aspergillus fumigatus Infection” (Antimicrobial Agents and Chemotherapy, 2018)
Converted amounts (≈) assume the structure as drawn.

What was measured:
A. fumigatus AF293 = test: EUCAST broth microdilution growth inhibition (OD 530 nm, 384-well); assay type: cell-based; conditions: Aspergillus fumigatus, strain AF293 (ITC-susceptible), 48 h
Experimental: (§1) The antifungal activities of the test compounds against A. fumigatus strains (itraconazole [ITC]-susceptible strains NCPF2010, AF294, and AF293; ITC-resistant strains AF72 and AF91) were calculated from growth curves generated by spectrophotometric analysis and compared to the activities against positive and negative controls.

A. fumigatus AF294 = test: as above; assay type: cell-based; conditions: Aspergillus fumigatus, strain AF294 (ITC-susceptible), 48 h
Experimental: as §1

A. fumigatus AF72 = test: as above; assay type: cell-based; conditions: Aspergillus fumigatus, strain AF72 (ITC-resistant), 48 h
Experimental: as §1

A. fumigatus AF91 = test: as above; assay type: cell-based; conditions: Aspergillus fumigatus, strain AF91 (ITC-resistant), 48 h
Experimental: as §1

A. fumigatus NCPF2010 = test: as above; assay type: cell-based; conditions: Aspergillus fumigatus, strain NCPF2010 (ITC-susceptible), 48 h, range tested 0.002 to 1 μg/ml
Experimental: as §1

[1] = tested on: A. fumigatus (ATCC 13073 [strain NIH 5233]); test: MIC against the strain used in vivo; assay type: cell-based; conditions: Aspergillus fumigatus, ATCC13073; strain ATCC 13073; read-out: MIC
A. fumigatus isolates = tested on: A. fumigatus isolates; design: method as in PMID 12202554; conditions: MFC = lowest dilution yielding less than 3 colonies; cited from earlier work

Row | Compound | IC50 (A. fumigatus AF293) [µg/mL] | IC90 (A. fumigatus AF293) [µg/mL] | IC50 (A. fumigatus AF294) [µg/mL] | IC90 (A. fumigatus AF294) [µg/mL] | IC50 (A. fumigatus AF72) [µg/mL] | IC90 (A. fumigatus AF72) [µg/mL] | IC50 (A. fumigatus AF91) [µg/mL] | IC90 (A. fumigatus AF91) [µg/mL] | IC50 (A. fumigatus NCPF2010) [µg/mL] | IC90 (A. fumigatus NCPF2010) [µg/mL] | MIC [1] [µg/mL] | range of MFCs for inhibition of 90% of isolates tested (MFC90) (A. fumigatus isolates) [µg/mL]
1 | C[C@@H]1[C@H](O)[C@@H](C)/C=C/C=C/C=C/C=C/C=C/C=C/C=C/[C@H](O[C@@H]2O[C@H](C)[C@@H](O)[C@H](N)[C@@H]2O)C[C@@H]2O[C@](O)(C[C@@H](O)C[C@@H](O)[C@H](O)CC[C@@H](O)C[C@@H](O)CC(=O)O[C@H]1C)C[C@H](O)[C@H]2C(=O)O [Amphotericin B, amphotericin B] | 0.24 (≈ 0.26 µM) | 0.85 (≈ 0.92 µM) | 0.21 (≈ 0.227 µM) | 0.79 (≈ 0.855 µM) | 0.12 (≈ 0.13 µM) | 0.42 (≈ 0.455 µM) | 0.28 (≈ 0.303 µM) | 0.75 (≈ 0.812 µM) | 0.2 (≈ 0.216 µM) | 0.62 (≈ 0.671 µM) | – | –
2 | CCC(C)n1ncn(-c2ccc(N3CCN(c4ccc(OCC5COC(Cn6cncn6)(c6ccc(Cl)cc6Cl)O5)cc4)CC3)cc2)c1=O (centres unmarked) [Itraconazole, itraconazole] | 0.032 (≈ 0.0453 µM) | 0.23 (≈ 0.326 µM) | 0.041 (≈ 0.0581 µM) | 0.052 (≈ 0.0737 µM) | 0.31 (≈ 0.439 µM) | > 1 | 0.22 (≈ 0.312 µM) | > 1 | 0.037 (≈ 0.0524 µM) | 0.054 (≈ 0.0765 µM) | 0.5 (≈ 0.709 µM) | 0.2 to 4
3 | CC[C@H](C)C[C@H](C)CCCCCCCCC(=O)N[C@H]1C[C@@H](O)[C@@H](NCCN)NC(=O)[C@@H]2[C@@H](O)CCN2C(=O)[C@H]([C@H](O)CCN)NC(=O)[C@H]([C@H](O)[C@@H](O)c2ccc(O)cc2)NC(=O)[C@@H]2C[C@@H](O)CN2C(=O)[C@H]([C@@H](C)O)NC1=O [Caspofungin, caspofungin] | > 1 | > 1 | > 1 | > 1 | 0.065 (≈ 0.0595 µM) | > 1 | 0.11 (≈ 0.101 µM) | > 1 | 0.065 (≈ 0.0595 µM) | > 1 | – | –
